Results taken from patent publication US20080287398A1, “COLD MENTHOL RECEPTOR-1 ANTAGONISTS” (priority 2007, published 2008).
pIC50: −log10 of the molar value. Values joined by “and” are separate entries in the source; they are usually repeats but may differ in a detail not shown here. Equal values may be shown once. Read-outs that look alike come from different tables or passages of the source.

Biological target: T1, canine TRPM8 (Canis lupus familiaris, UniProt Q1A7N1)
T1 construct: expressed in transfected cells
Test: In vitro canine TRPM8 functional assay (Ca2+-sensitive dye, FLIPR/FDSS, icilin activation)
Type: cell-based
Settings: HEK293 cells expressing canine TRPM8, icilin activation; for % I (0.5 μM): 0.5 μM compound; for pIC50 / IC50: eight-point dose-response; for pIC50: read-out: IC50; for % I (1 μM): 1 μM compound; for IC50: IC50 (μM)
Method: The functional activity of compounds of Formula (I) was determined by measuring changes in intracellular calcium concentration using a Ca^2+-sensitive fluorescent dye. The changes in fluorescent signal were monitored by a fluorescence plate reader, either a FLIPR™ (Molecular Devices) or FDSS (Hamamatsu).
HEK293 cells stably expressing canine TRPM8 were routinely grown as monolayers in Dulbecco's minimum essential medium supplemented with 10% FBS, 1 mM L-glutamine, 100 units/mL penicillin, 100 ug/mL streptomycin and 400 μg/mL G418. Cells were maintained in 5% CO2 at 37° C. At 24 hrs prior to assay, cells were seeded in clear-base poly-D-lysine coated 384-well plates (BD Biosciences, NJ, USA) at a density of 5,000 cells per well in culture medium and grown overnight in 5% CO2 at 37° C. On assay day, growth media was removed and cells were loaded with Calcium 3 Dye (Molecular Devices) for 35 min at 37° C., under 5% CO2 and then for 25 min at room temperature and atmosphere. Subsequently, cells were tested for agonist-induced increases in intracellular Ca^2+ levels using FLIPR™ or FDSS. Cells were challenged with a compound of Formula (I) (at varying concentrations) and intracellular Ca^2+ was measured for 5 min prior to the addition of icilin to all wells to achieve a final concentration which produces approximately an 80% maximal response.
Basal FI was subtracted prior to normalizing data to percent of maximal response. Curves were generated using the average of quadruplicate wells for each data point, were analyzed using nonlinear regression of either sigmoidal dose response or sigmoidal dose response (variable slope). Finally, the EC50 and IC50 values were calculated with the best-fit dose curve determined by GraphPad Prism.

[1] = HEK293, 0.5 μM compound, read-out: % I (0.5 μM)
[2] = HEK293, read-out: % I (1 μM), 1 μM compound

T1 sequence (Q1A7N1 1-1104): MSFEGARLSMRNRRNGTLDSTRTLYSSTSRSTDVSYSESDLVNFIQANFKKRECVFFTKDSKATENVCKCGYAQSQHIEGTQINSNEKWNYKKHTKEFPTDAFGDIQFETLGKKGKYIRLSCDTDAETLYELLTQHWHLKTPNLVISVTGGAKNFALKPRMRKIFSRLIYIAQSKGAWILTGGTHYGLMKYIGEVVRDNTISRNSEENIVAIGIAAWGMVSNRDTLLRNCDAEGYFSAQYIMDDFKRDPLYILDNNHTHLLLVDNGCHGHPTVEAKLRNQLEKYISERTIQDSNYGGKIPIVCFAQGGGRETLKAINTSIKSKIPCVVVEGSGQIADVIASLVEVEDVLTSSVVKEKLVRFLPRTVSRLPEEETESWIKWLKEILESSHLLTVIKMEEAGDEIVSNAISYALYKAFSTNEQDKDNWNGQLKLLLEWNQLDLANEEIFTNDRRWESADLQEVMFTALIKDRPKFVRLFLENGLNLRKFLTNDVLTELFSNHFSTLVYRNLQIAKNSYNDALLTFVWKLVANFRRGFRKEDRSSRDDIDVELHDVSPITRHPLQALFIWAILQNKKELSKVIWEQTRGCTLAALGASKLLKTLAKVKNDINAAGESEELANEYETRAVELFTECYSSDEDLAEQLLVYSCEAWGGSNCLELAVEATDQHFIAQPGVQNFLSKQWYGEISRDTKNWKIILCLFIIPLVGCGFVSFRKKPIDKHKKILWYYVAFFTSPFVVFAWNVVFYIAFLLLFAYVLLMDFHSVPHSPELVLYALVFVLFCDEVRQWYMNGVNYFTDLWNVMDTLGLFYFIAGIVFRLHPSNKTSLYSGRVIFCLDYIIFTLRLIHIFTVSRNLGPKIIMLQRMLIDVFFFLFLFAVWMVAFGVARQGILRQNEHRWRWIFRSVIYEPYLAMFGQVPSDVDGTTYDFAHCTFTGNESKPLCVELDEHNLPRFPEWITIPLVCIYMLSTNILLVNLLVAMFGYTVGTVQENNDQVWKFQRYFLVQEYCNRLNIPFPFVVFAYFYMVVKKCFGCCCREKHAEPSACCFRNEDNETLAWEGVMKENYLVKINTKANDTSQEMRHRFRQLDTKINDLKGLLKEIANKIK

| Compound | % I (0.5 μM) | pIC50 | % I (1 μM) [%] | further results |
| --- | --- | --- | --- | --- |
| CCOP(=O)(OCC)C(Cc1cccc(OC)c1F)c1sc2ccccc2c1Br (racemic) [Cpd 162] | 103% | 7.49 | – | – |
| COCCOCCOP(=O)(OCCOCCOC)C(Cc1ccc(F)c(F)c1)c1sc2ccccc2c1Br (racemic) [Cpd 210] | 62% | – | – | – |
| CCOP(=O)(OCC)C(Cc1ccc(F)cc1Cl)c1sc2ccccc2c1C (stereo not drawn) [Cpd 27] | – | 6.96 | 99 | – |
| CCOP(=O)(OCC)C(Cc1ccccc1-c1ccccc1)c1sc2ccccc2c1C (stereo not drawn) [Cpd 115] | – | – | 69 | – |
| CCOP(=O)(OCC)C(Cc1ccc(F)c(F)c1)c1sc2ccccc2c1-c1ccccc1O (racemic) [Cpd 215] | 101% | 7.07 | – | – |
| CC(C)OP(=O)(OC(C)C)C(Cc1ccc(F)c(F)c1)c1oc2cccc(F)c2c1Br (racemic) [Cpd 205] | – | 7.30 | 101 | – |
| CCOP(=O)(OCC)C(Cc1ccccc1Cl)c1sc2ccccc2c1Cl (stereo not drawn) [Cpd 269] | 102% | 6.79 | – | – |
| CC(C)OP(=O)(OC(C)C)C(Cc1ccc(F)cc1C(F)(F)F)c1sc2ccccc2c1Br (stereo not drawn) [Cpd 249] | 103% | 7.27 | – | – |
| CCOP(=O)(OCC)C(Cc1ccccc1C)c1sc2ccccc2c1C (stereo not drawn) [Cpd 26] | – | 6.97 | 100 | – |
| CCOP(=O)(Cc1cc2ccccc2s1)OCc1ccc(F)cc1 (stereo not drawn) [Cpd 107] | – | 5.89 | – | % I (5 μM) (5 μM compound): 99% |
| CC(C)OP(=O)(OC(C)C)C(Cc1ccc(Cl)cc1)c1sc2ccccc2c1Cl (stereo not drawn) [Cpd 181] | 103% | 6.95 | – | – |
| CCOP(=O)(OCC)C(Cc1cccc(OC)c1)c1sc2ccccc2c1Br (stereo not drawn) [Cpd 314] | 103% and 104% | 7.54 and 7.68 | – | – |
| CCC(C)P(=O)(C(C)CC)C(Cc1ccc(F)c(F)c1)c1sc2ccccc2c1Br (stereo not drawn) [Cpd 203] | – | 6.34 | 96 | – |
| CC(C)OP(=O)(OC(C)C)C(Cc1cccc(Br)c1)c1sc2ccccc2c1Cl (stereo not drawn) [Cpd 182] | 104% | 7.12 | – | – |
| CC(C)OP(=O)(OC(C)C)C(Cc1ccc(F)c(F)c1)c1sc2cccc(F)c2c1Br (stereo not drawn) [Cpd 221, [1-(3-Bromo-4-fluoro-benzo[b]thiophen-2-yl)-2-(3,4-difluoro-phenyl)-ethyl]-phosphonic acid diisopropyl ester] | – | 7.49 | – | inhibition at 0.5 µM [1]: 102% |
| CC(C)OP(=O)(OC(C)C)C(Cc1ccc(F)c(F)c1)c1sc2ccccc2c1C(F)(F)F (stereo not drawn) [Cpd 43, [2-(3,4-Difluoro-phenyl)-1-(3-trifluoromethyl-benzo[b]-thiophene-2-yl)-ethyl]-phosphonic acid diisopropyl ester] | – | 6.80 | – | inhibition at 1 µM (HEK293, 1 μM compound, read-out: % I (1 μM)): 100% |
| CCOP(=O)(OCC)C(C)(Cc1ccc(F)c(F)c1)c1sc2ccccc2c1C (stereo not drawn) [Cpd 79, [2-(3,4-Difluoro-phenyl)-1-methyl-1-(3-methyl-benzo[b]-thiophen-2-yl)-ethyl]-phosphonic acid diethyl ester] | – | – | – | inhibition at 1 µM [2]: 88%; IC50: 0.43 µM |
| CCOP(=O)(OCC)C(Cc1cc(F)cc(F)c1Cl)c1sc2ccccc2c1C (stereo not drawn) [Cpd 28] | – | 6.96 | 100 | – |
| CC(C)OP(=O)(OC(C)C)C(Cc1ccc(F)cc1)c1sc2ccccc2c1Cl (racemic) [Cpd 306] | 101% and 102% | – | – | – |
| CC(C)OP(=O)(OC(C)C)C(Cc1ccc(F)c(C(F)(F)F)c1)c1sc2ccccc2c1Cl (stereo not drawn) [Cpd 188] | 103% | 7.19 | – | – |

| Compound | % I (0.5 μM) | pIC50 | % I (1 μM) [%] | further results |
| --- | --- | --- | --- | --- |
| [2-(3,4-Difluoro-phenyl)-1-(3-methyl-benzo[b]thiophene-2-yl)-ethyl]-[3-(4-methoxy-phenyl)-propyl]-phosphonic acid ethyl ester [Cpd 135] | – | 6.39 | 90 | – |
| CCOP(=O)(OCC)C(Cc1ccc(F)c(F)c1)c1sc2cccc(Cl)c2c1C (stereo not drawn) [Cpd 65, [1-(4-Chloro-3-methyl-benzo[b]thiophen-2-yl)-2-(3,4-difluoro-phenyl)-ethyl]-phosphonic acid diethyl ester] | – | – | – | inhibition at 1 µM [2]: 100%; IC50: 0.3 µM |
| CCOP(=O)(OCC)C(Cc1ccc(O)cc1)c1sc2ccccc2c1Br (stereo not drawn) [Cpd 324] | 54% | – | – | – |
| CCOP(=O)(OCC)C(Cc1ccc(OC(F)(F)F)c(Cl)c1)c1sc2ccccc2c1Cl (stereo not drawn) [Cpd 271] | 103% | 6.98 | – | – |
| CCOP(=O)(OCCN(C)C)C(Cc1ccc(F)c(F)c1)c1sc2ccccc2c1C (stereo not drawn) [Cpd 103, [2-(3,4-Difluoro-phenyl)-1-(3-methyl-benzo[b]thiophen-2-yl)-ethyl]-phosphonic acid 2-dimethylamino-ethyl ester ethyl ester] | – | – | – | inhibition at 1 µM [2]: 60%; IC50: 0.93 µM |
| CCOP(=O)(OCC)C(Cc1ccc2ccccc2c1)c1sc2ccccc2c1C (stereo not drawn) [Cpd 46] | – | 6.78 | 99 | – |
| Cc1c(C(Cc2ccc(F)c(F)c2)P(=O)(OC(C)C)OC(C)C)oc2cccc(F)c12 (stereo not drawn) [Cpd 202] | – | 7.28 | 103 | – |
| CC(C)OP(=O)(OC(C)C)C(Cc1ccc(SC(F)(F)F)cc1)c1sc2ccccc2c1Cl (racemic) [Cpd 304] | 102% | 7.55 | – | – |
| CCOP(=O)(OCC)C(Cc1cc(C(F)(F)F)cc(Cl)c1F)c1sc2ccccc2c1C (stereo not drawn) [Cpd 73] | – | 6.44 | 100 | – |
| COc1cc(CC(c2sc3ccccc3c2Br)P(=O)(OC(C)C)OC(C)C)c(F)cc1Cl (racemic) [Cpd 165] | 102% | 7.07 | – | – |
| CC(C)OP(=O)(OC(C)C)C(Cc1ccc(F)c(F)c1)c1oc2ccccc2c1Br (stereo not drawn) [Cpd 124] | – | 7.31 | 103 | – |
| CC(C)OP(=O)(OC(C)C)C(Cc1ccc(F)c(F)c1)c1sc2ccccc2c1C1CCCC1 (stereo not drawn) [Cpd 38] | – | 6.85 | 99 | – |
| CCCCOP(=O)(OCCCC)C(Cc1ccc(F)c(F)c1)c1sc2ccccc2c1Br (stereo not drawn) [Cpd 209, [1-(3-Bromo-benzo[b]thiophen-2-yl)-2-(3,4-difluoro-phenyl)-ethyl]-phosphonic acid dibutyl ester] | – | 7.15 | – | inhibition at 0.5 µM [1]: 104% |
| CC(C)OP(=O)(OC(C)C)C(Cc1ccc(F)c(C(F)(F)F)c1)c1c(Br)c2ccccc2n1C (stereo not drawn) [Cpd 328, [1-(3-Bromo-1-methyl-1H-indol-2-yl)-2-(4-fluoro-3-trifluoromethyl-phenyl)-ethyl]-phosphonic acid diisopropyl ester] | – | 6.71 | – | inhibition at 0.5 µM [1]: 102% |
| CC(C)OP(=O)(OC(C)C)C(Cc1ccc(F)cc1C(F)(F)F)c1sc2ccccc2c1Cl (stereo not drawn) [Cpd 254] | 103% | 7.10 | – | – |
| COP(=O)(OC)C(Cc1ccc(F)c(F)c1)c1sc2ccccc2c1Br (stereo not drawn) [Cpd 201] | – | 6.88 | 100 | – |
| CCOP(=O)(OCC)C(Cc1ccc(Cl)c(Cl)c1)c1sc2ccccc2c1Br (stereo not drawn) [Cpd 24, [1-(3-Bromo-benzo[b]thiophen-2-yl)-2-(3,4-dichloro-phenyl)-ethyl]-phosphonic acid diethyl ester] | – | – | – | inhibition at 1 µM [2]: 100%; IC50: 0.107 µM |
| CCOP(=O)(OCC)C(Cc1cc(O)cc(O)c1)c1sc2ccccc2c1Br (stereo not drawn) [Cpd 322] | 45% | – | – | – |
| CCOP(=O)(OCC)C(Cc1ccc(F)c(F)c1)c1sc2ccccc2c1-c1ccccc1 (stereo not drawn) [Cpd 214, [2-(3,4-Difluoro-phenyl)-1-(3-phenyl-benzo[b]thiophen-2-yl)-ethyl]-phosphonic acid diethyl ester] | – | – | – | inhibition at 0.5 µM (HEK293, read-out: % I (0.5 μM), 0.5 μM compound): 101%; IC50: 0.08 µM |
| CCOP(=O)(OCC)C(Cc1ccc(OC(F)F)cc1)c1sc2ccccc2c1Br (stereo not drawn) [Cpd 311] | 102% | 7.28 | – | – |
